Some results are limits rather than exact numbers.

One test has as its system HBV. Put plainly: Viral load production from HepAD38 cells, qPCR of the HBV core sequence in supernatant. Format: cell-based. The note with it: Hepatitis B virus, HePAD38, 120 h, HepAD38 cells, 5 days, HBV DNA in supernatant by qPCR; Table 1 ranges; read-out: Activity (viral load lowering EC50). An outline of the steps: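 EC50 and CC50 come from four-parameter logistic fits of supernatant HBV core DNA (TaqMan qPCR, DNA standards, compared with DMSO wells) and of CellTiter-Glo luminescence.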
As a reminder, the EC50 is the concentration that produces a half-maximal response. For `Cn1cc(C2(O)CC3CC(c4nn(C)c(N)c4C(=O)Nc4ccc(F)c(Cl)c4)CC3C2)cn1` (stereo not shown) [Example 146], the EC50 is under 10 nM.

For `Cn1nc(C2CC3CC(O)(c4ncc[nH]4)CC3C2)c(C(=O)Nc2ccc(F)c(Cl)c2)c1N` (stereo not shown) [Example 147], the EC50 was in the range of 10 to 50 nM.

On to `Cn1nc(C2CC3CC(O)(c4ncc(C(F)(F)F)s4)CC3C2)c(C(=O)Nc2ccc(F)c(Cl)c2)c1N` (stereo not shown) [Example 148], for which the EC50 was 10 to 50 nM.

Consider `Cn1nc(C2CC3CC(O)(c4nc(C(F)(F)F)cs4)CC3C2)c(C(=O)Nc2ccc(F)c(Cl)c2)c1N` (stereo not shown) [Example 149], for which the EC50 lay in the range of 10 to 50 nM.

On to `Cn1cc(Br)c(C2(O)CC3CC(c4nn(C)c(N)c4C(=O)Nc4ccc(F)c(Cl)c4)CC3C2)n1` (stereo not shown) [Example 150], for which the EC50 was under 10 nM.

As for `Cn1nc(C2CC3CC(O)(c4sc(C(F)(F)F)nc4Br)CC3C2)c(C(=O)Nc2ccc(F)c(Cl)c2)c1N` (stereo not shown) [Example 151], the concentration giving a half-maximal response (EC50) is 50 to 500 nM.

In the case of `Cn1nc(C2CC3CC(O)(c4nc5cc(F)c(F)cc5n4C)CC3C2)c(C(=O)Nc2ccc(F)c(Cl)c2)c1N` (stereo not shown) [Example 152], the concentration for a half-maximal effect (EC50) lay in the range of 10 to 50 nM.

As for `Cn1ccc(C2(O)CC3CC(c4nn(C)c(N)c4C(=O)Nc4ccc(F)c(Cl)c4)CC3C2)n1` (stereo not shown) [Example 153], the EC50 is under 10 nM.

As to `Cc1cc(C2(O)CC3CC(c4nn(C)c(N)c4C(=O)Nc4ccc(F)c(Cl)c4)CC3C2)c(F)cn1` (stereo not shown) [Example 154], the EC50 is under 10 nM.

Consider `Cn1nc(N)cc1C1(O)CC2CC(c3nn(C)c(N)c3C(=O)Nc3ccc(F)c(Cl)c3)CC2C1` [Example 155, 5-amino-3-((2 s,3aR,5r,6aS)-5-(3-amino-1-methyl-1H-pyrazol-5-yl)-5-hydroxyoctahydropentalen-2-yl)-N-(3-chloro-4-fluorophenyl)-1-methyl-1H-pyrazole-4-carboxamide], for which the 50% effective concentration (EC50) is under 10 nM.

For `Cn1nc(C2CC3CC(O)(c4c[nH]nc4C(F)(F)F)CC3C2)c(C(=O)Nc2ccc(F)c(Cl)c2)c1N` (stereo not shown) [Example 156, 5-amino-N-(3-chloro-4-fluorophenyl)-3-(5-hydroxy-5-(3-(trifluoromethyl)-1H-pyrazol-4-yl)octahydropentalen-2-yl)-1-methyl-1H-pyrazole-4-carboxamide], the concentration for a half-maximal effect (EC50) was under 10 nM.

Turning to `Cn1nc(C2CC3CC(O)(c4cn(COP(=O)(O)O)nc4C(F)(F)F)CC3C2)c(C(=O)Nc2ccc(F)c(Cl)c2)c1N` (stereo not shown) [Example 157, sodium sodium (4-(5-(5-amino-4-((3-chloro-4-fluorophenyl)carbamoyl)-1-methyl-1H-pyrazol-3-yl)-2-hydroxyoctahydropentalen-2-yl)-3-(trifluoromethyl)-1H-pyrazol-1-yl)methyl phosphate], the EC50 is under 10 nM.

`COCCOCCOCCOCCOCCOCCOCCOCCOC(=O)OCn1cc(C2(O)CC3CC(c4nn(C)c(N)c4C(=O)Nc4ccc(F)c(Cl)c4)CC3C2)c(C(F)(F)F)n1` [Example 158, (4-((2r,3aR,5 s,6aS)-5-(5-amino-4-((3-chloro-4-fluorophenyl)carbamoyl)-1-methyl-1H-pyrazol-3-yl)-2-hydroxyoctahydropentalen-2-yl)-3-(trifluoromethyl)-1H-pyrazol-1-yl)methyl (2,5,8,11,14,17,20,23-octaoxapentacosan-25-yl) carbonate]: the EC50 was under 10 nM.

`Cn1nc(C(F)(F)F)cc1C1(O)CC2CC(c3nn(C)c(N)c3C(=O)Nc3ccc(F)c(Cl)c3)CC2C1` (stereo not shown) [Example 159]: the EC50 is 10 to 50 nM.

`Cn1nc(C2CC3CC(O)(Cc4nccs4)CC3C2)c(C(=O)Nc2ccc(F)c(Cl)c2)c1N` (stereo not shown) [Example 160]: the EC50 was under 10 nM.

For the molecule `Cc1ncc(C2(O)CC3CC(c4nn(C)c(N)c4C(=O)Nc4ccc(F)c(Cl)c4)CC3C2)s1` (stereo not shown) [Example 161], the 50% effective concentration (EC50) was under 10 nM.

With `Cc1ccc(S(=O)(=O)CC2(O)CC3CC(c4nn(C)c(N)c4C(=O)Nc4ccc(F)c(Cl)c4)CC3C2)cn1` (stereo not shown) [Example 162], the EC50 was under 10 nM.

Turning to `Cn1cc(C(F)(F)F)nc1C1(O)CC2CC(c3nn(C)c(N)c3C(=O)Nc3ccc(F)c(Cl)c3)CC2C1` (stereo not shown) [Example 163], the EC50 was in the range of 10 to 50 nM.

For `Cn1nc(C2CC3CC(O)(Cc4ccccn4)CC3C2)c(C(=O)Nc2ccc(F)c(Cl)c2)c1N` (stereo not shown) [Example 164], the EC50 was 10 to 50 nM.

Regarding `Cn1nc(C2CC3CC(O)(c4cc(Br)ncc4F)CC3C2)c(C(=O)Nc2ccc(F)c(Cl)c2)c1N` (stereo not shown) [Example 166], the EC50 was in the range of 10 to 50 nM.

Consider `Cn1nc(C2CC3CC(O)(c4ncc(C(F)(F)F)n4C)CC3C2)c(C(=O)Nc2ccc(F)c(Cl)c2)c1N` (stereo not shown) [Example 167], for which the half-maximal effective concentration (EC50) was in the range of 10 to 50 nM.

Consider `Cn1nc(C2CC3CC(O)(c4ccc(F)cn4)CC3C2)c(C(=O)Nc2ccc(F)c(Cl)c2)c1N` (stereo not shown) [Example 168], for which the EC50 is under 10 nM.

Regarding `Cn1nc(C2CC3CC(O)(c4ccncc4F)CC3C2)c(C(=O)Nc2ccc(F)c(Cl)c2)c1N` (stereo not shown) [Example 169], the EC50 is under 10 nM.

Take `Cn1nc(C2CC3CC(O)(c4c[nH]nn4)CC3C2)c(C(=O)Nc2ccc(F)c(Cl)c2)c1N` (stereo not shown) [Example 170]: the EC50 is under 10 nM.

For `Cn1nc(C2CC3CC(O)(c4nn[nH]n4)CC3C2)c(C(=O)Nc2ccc(F)c(Cl)c2)c1N` (stereo not shown) [Example 171], the EC50 is over 500 nM.

As for `Cn1nnnc1C1(O)CC2CC(c3nn(C)c(N)c3C(=O)Nc3ccc(F)c(Cl)c3)CC2C1` (stereo not shown) [Example 172], the EC50 was 10 to 50 nM.

With `Cn1nc(C2CC3CC(O)(c4cn[nH]n4)CC3C2)c(C(=O)Nc2ccc(F)c(Cl)c2)c1N` (stereo not shown) [Example 173], the EC50 is 10 to 50 nM.

`Cn1nc(C2CC3CC(O)(c4c(F)cncc4F)CC3C2)c(C(=O)Nc2ccc(F)c(Cl)c2)c1N` (stereo not shown) [Example 174]: the EC50 is under 10 nM.

Consider `Cn1nc(C2CC3CC(O)(c4ncccn4)CC3C2)c(C(=O)Nc2ccc(F)c(Cl)c2)c1N` (stereo not shown) [Example 175], for which the EC50 is under 10 nM.

In the case of `Cc1nnc(C2(O)CC3CC(c4nn(C)c(N)c4C(=O)Nc4ccc(F)c(Cl)c4)CC3C2)o1` (stereo not shown) [Example 176], the EC50 fell in the range of 10 to 50 nM.

On to `Cc1nc(C2(O)CC3CC(c4nn(C)c(N)c4C(=O)Nc4ccc(F)c(Cl)c4)CC3C2)no1` (stereo not shown) [Example 177], for which the EC50 was under 10 nM.

As for `Cn1nc(C2CC3CC(O)(c4cc[nH]n4)CC3C2)c(C(=O)Nc2ccc(F)c(Cl)c2)c1N` (stereo not shown) [Example 178], the EC50 is under 10 nM.

In the case of `Cc1noc(C2(O)CC3CC(c4nn(C)c(N)c4C(=O)Nc4ccc(F)c(Cl)c4)CC3C2)n1` (stereo not shown) [Example 179], the EC50 was under 10 nM.

On to `Cc1cc(C2(O)CC3CC(c4nn(C)c(N)c4C(=O)Nc4ccc(F)c(Cl)c4)CC3C2)on1` (stereo not shown) [Example 180], for which the EC50 is under 10 nM.

In the case of `Cn1nc(C2CC3CC(O)(Cc4ncco4)CC3C2)c(C(=O)Nc2ccc(F)c(Cl)c2)c1N` (stereo not shown) [Example 181], the EC50 is under 10 nM.

Turning to `Cn1nc(C2CC3CC(N)(CS(C)(=O)=O)CC3C2)c(C(=O)Nc2ccc(F)c(Cl)c2)c1N` (stereo not shown) [Example 182], the EC50 was over 500 nM.

`Cc1coc(C2(O)CC3CC(c4nn(C)c(N)c4C(=O)Nc4ccc(F)c(Cl)c4)CC3C2)n1` (stereo not shown) [Example 183]: the EC50 is under 10 nM.

As to `Cc1cnc(C2(O)CC3CC(c4nn(C)c(N)c4C(=O)Nc4ccc(F)c(Cl)c4)CC3C2)o1` (stereo not shown) [Example 184], the EC50 is under 10 nM.

Turning to `Cn1nc(C2CC3CC(N4CCC(F)(C(N)=O)CC4)CC3C2)c(C(=O)Nc2ccc(F)c(Cl)c2)c1N` (stereo not shown) [Example 185], the EC50 was 10 to 50 nM.

Turning to `COC(=O)C1=CCN(C2CC3CC(c4nn(C)c(N)c4C(=O)Nc4ccc(F)c(Cl)c4)CC3C2)CC1` (stereo not shown) [Example 186], the EC50 was 50 to 500 nM.

For the molecule `Cn1nc(C2CC3CC(N4CCC(C(N)=O)CC4)CC3C2)c(C(=O)Nc2ccc(F)c(Cl)c2)c1N` (stereo not shown) [Example 187], the EC50 fell in the range of 50 to 500 nM.

As to `Cn1nc(C2CC3CC(N4CC=C(C(=O)O)CC4)CC3C2)c(C(=O)Nc2ccc(F)c(Cl)c2)c1N` (stereo not shown) [Example 188], the EC50 was over 500 nM.

On to `Cn1nc(C2CC3CC(N4CC=C(C(N)=O)CC4)CC3C2)c(C(=O)Nc2ccc(F)c(Cl)c2)c1N` (stereo not shown) [Example 189], for which the EC50 was 10 to 50 nM.

As for `Cn1nc(C2CC3CC(O)(c4cccnn4)CC3C2)c(C(=O)Nc2ccc(F)c(Cl)c2)c1N` (stereo not shown) [Example 190], the EC50 was under 10 nM.

As to `Cn1nc(C2CC3CC(O)(c4cnccn4)CC3C2)c(C(=O)Nc2ccc(F)c(Cl)c2)c1N` (stereo not shown) [Example 191], the EC50 was under 10 nM.

On to `CSc1nccc(C2(O)CC3CC(c4nn(C)c(N)c4C(=O)Nc4ccc(F)c(Cl)c4)CC3C2)n1` (stereo not shown) [Example 192], for which the 50% effective concentration (EC50) fell in the range of 10 to 50 nM.

On to `Cn1ncnc1C1(O)CC2CC(c3nn(C)c(N)c3C(=O)Nc3ccc(F)c(Cl)c3)CC2C1` (stereo not shown) [Example 193], for which the EC50 was under 10 nM.

As for `Cn1nc(Br)c(C2(O)CC3CC(c4nn(C)c(N)c4C(=O)Nc4ccc(F)c(Cl)c4)CC3C2)n1` (stereo not shown) [Example 194], the EC50 was under 10 nM.

Take `Cn1ncc(C2(O)CC3CC(c4nn(C)c(N)c4C(=O)Nc4ccc(F)c(Cl)c4)CC3C2)n1` (stereo not shown) [Example 195]: the 50% effective concentration (EC50) was under 10 nM.

Turning to `CCn1nccc1C1(O)CC2CC(c3nn(C)c(N)c3C(=O)Nc3ccc(F)c(Cl)c3)CC2C1` (stereo not shown) [Example 196], the EC50 is under 10 nM.

In the case of `Cn1nc(C2CC3C=C(c4ccn[nH]4)CC3C2)c(C(=O)Nc2ccc(F)c(Cl)c2)c1N` (stereo not shown) [Example 197], the EC50 was under 10 nM.

In the case of `C=C(n1cccn1)C1(O)CC2CC(c3nn(C)c(N)c3C(=O)Nc3ccc(F)c(Cl)c3)CC2C1` (stereo not shown) [Example 198], the EC50 is under 10 nM.

Take `CC(n1cccn1)C1(O)CC2CC(c3nn(C)c(N)c3C(=O)Nc3ccc(F)c(Cl)c3)CC2C1` (stereo not shown) [Example 199]: the EC50 is under 10 nM.

The test is the same for the next values; noted with them: Hepatitis B virus, HePAD38, 120 h, HepAD38 cells, 5 days, HBV DNA in supernatant by qPCR; Table 2 ranges; read-out: VL HepAD38 EC50 range.
Turning to `Cn1nc(C2CC3CC3C2)c(C(=O)Nc2ccc(F)c(Cl)c2)c1N` (stereo not shown) [Example 139, 5-Amino-3-(bicyclo[3.1.0]hexan-3-yl)-N-(3-chloro-4-fluorophenyl)-1-methyl-1H-pyrazole-4-carboxamide], the EC50 is under 100 nM.

`Cn1nc(C2CC3CC(=O)C(c4ccccc4)C3C2)c(C(=O)Nc2ccc(F)c(Cl)c2)c1N` (stereo not shown) [Example 140, 5-Amino-N-(3-chloro-4-fluorophenyl)-1-methyl-3-(5-oxo-4-phenyloctahydropentalen-2-yl)-1H-pyrazole-4-carboxamide]: the EC50 is under 100 nM.

For the origin of these results see US20230295096A1, “PYRAZOLE CARBOXAMIDE COMPOUNDS FOR TREATMENT OF HBV” (ASSEMBLY BIOSCIENCES, INC., priority 2020, published 2023).
